Results published in patent US7345020B2, “Mimetics of CD4 that inhibit immune response” (Thomas Jefferson University, priority 1995, dated 2008).
“Also recorded” adds a separate entry of the source. Positions of bridges follow the written chain, without caps; N, C: chain ends. Residues, ends and D or L forms follow the SMILES beside them.

How the values were obtained:
[1] = test system: human peripheral blood lymphocytes (responder cell alloreactive proliferation); settings: for activity of cyclic CNSNQIC compared with this linear peptide in human MLR: linear peptides derived from the same C—C′ region
Description: For this assay, fresh peripheral blood lymphocytes from two different donors are co-cultured; the cells of one donor were irradiated and served as stimulators. Proliferation of these activated T cells was measured by measuring the incorporation of ^3H-thymidine at various timepoints.
For human MLR, 50 ml of whole blood was collected into anti-coagulant (ACD, acid citrate dextrose) containing tubes. In 50 ml conical tubes, 20 ml of blood was layered over 20 ml Ficoll 1077 (Sigma Chemical Co., St. Louis, Mo.) and centrifuged at 2000 rpm for 35-40 min at 15-20° C. Buffy coats and serum were collected in 3× volume of PBS centrifuged at 1500 rpm for 15 min at 15-20° C. Supernatants were discarded, cells were washed 2× in 50 ml PBS and resuspended in RPMI supplemented with 10% heat-inactivated (56°, 30 min) human serum (cat# H4522, Sigma), 50 IU/ml pen/strep and 2 mM (1% of 200 mM stock) L-glutamine (both from BioWhitaker).
In a 96-well flat bottom plate 1×10^5 responders were plated with 2×10^5 irradiated (3000 rad) simulators/well (added in 100 μl each), and incubated for 6, 7 or 8 days at 37° C., 7% CO2. Peptide analogues were added to quadruplicate wells, at a concentration of 100 μM (5 mg/ml stock) or titrations thereof, immediately after cells were plated. For radiolabelling, the cells were incubated with 1 μCi [^3H] TdR/well (25 μl) (diluted from 1 mCi/ml stock, Amersham) for the final 6 hours of incubation. Cells were harvested using a fiberfilter cell harvester (e.g., Harvester 96, Tomtec) and counted in a Beta Counter of Beta plate reader (1205 BS Betaplate Liquid Scintillation Counter, Wallac) with scintillation fluid.

[2] = test system: experimental allergic encephalomyelitis (EAE); test: EAE inhibition in vivo (SJL EAE model); set-up: species or system mouse; settings: for maximum mean EAE severity grade: SJL mice, 0.5 mg i.v. on day 12, 0-5 scale, untreated control maximum 2.0
Description: The C—C′ loop peptides were initially tested for efficacy in the SJL EAE model. In untreated animals, a high incidence of disease was observed 15-22 days after two s.c. inoculations of 1 mg of crude murine spinal cord homogenate in complete Freund's adjuvant. The severity of the disease was scored daily using the established 0-5 scale that describes the level of ascending paresis, Korngold, R., et al., 1986, Immunogenetics 24:309-315. The level of the mean EAE severity grade of mice for the untreated control group reached a maximum of 2.0. […] Also shown are the results of groups of mice that received the rD-mPGPtide, a mimic of residues 86-104 of murine homolog of CD4, which was described in Jameson et al. 1994, Nature 368:744-746.

[3] = test system: murine spleen responder cells with irradiated C3H stimulator cells; test: Murine mixed lymphocyte reaction; type: cell-based, mouse; settings: in vitro
Description: Mice were sacrificed and spleens aseptically removed. Cell suspensions were made by gently pressing spleens through nylon mesh, washing cells with RPMI 1640 and hypotonic lysis of red blood cells. After 3 washes in RPMI 1640, cells were resuspended in complete medium (RPMI 1640, 10% heat inactivated FCS, 2 mM L-glutamine, penicillin/streptomycin) and 5×10^5 responder cells incubated with 1×10^5 stimulator cells (C3H spleen cells, 2000 rad irradiated) in triplicate in round bottom 96 well plates (final volume 200 μl), and incubated with the indicated concentration of peptide (0.01, 0.1, 1, 10, 100 and 1000 μM peptide) for 5 days at 37° C., 5% CO2. 1 μCi/WELL OF [^3H] TdR was added 12 hours before thymidine incorporation was measured. Labelled DNA from cells was harvested onto glass fiber filters with a PHD cell harvester (Cambridge, Mass.), and CPM determined by liquid scintillation counting with the use of a 1209 Rackbeta (LKB, Piscataway, N.J.).

| Compound | maximum mean EAE severity grade [2] | effect on EAE in mice, in words [2] | activity of cyclic CNSNQIC compared with this linear peptide in human MLR [1] | also measured |
| --- | --- | --- | --- | --- |
| CC[C@H](C)[C@@H]1NC(=O)[C@H](CCC(N)=O)NC(=O)[C@H](CC(N)=O)NC(=O)[C@H](CO)NC(=O)[C@H](CC(N)=O)NC(=O)[C@@H](N)CSSC[C@@H](C(=O)O)NC1=O [cyclic CNSNQIC, CNSNQIC] (H-CNSNQIC-OH; disulfide 1-7; N-terminus and C-terminus assumed) | 1.0 | effective to ameliorate EAE; also recorded: inhibitor of EAE in mice | – | inhibition of human T cell activation (suppressive effect) ([1]; 3 h): 54.4% |
| CNSNQIC (linear, no disulfide) [linear CNSNQIC] | 1.0 | – | – | – |
| KNSNQ | – | – | significantly higher activity | – |
| KNSNQI | – | – | significantly higher activity | – |
| NSNQI | – | – | significantly higher activity | – |
| YCNSNQIC | – | inhibitory activity comparable to the cyclic peptide CNSNQIC | – | inhibitory activity in murine MLR, in words [3]: inhibitory activity comparable to the cyclic peptide CNSNQIC; inhibitory activity in human MLR / human T cell proliferation, in words ([1]; in vitro): inhibitory activity comparable to the cyclic peptide CNSNQIC |
